Laboratory results from patent EP3355943B1, “METHODS AND SYSTEMS FOR TREATING MEDICAL DEVICES AND FLUIDS” (Ethicon, Inc., priority 2015, dated 2017).
Values joined by “and” are separate entries in the source; they are usually repeats but may differ in a detail not shown here. Equal values may be shown once.

Assays:
Format in all cases: biochemical
[1] = Detection of LPS after adding CaSt powder to water spiked with LPS (Kinetic Chromogenic Method for Endotoxin Quantitation)
Description: Water and aqueous solutions (containing LPS with various sources of endotoxin) were exposed to calcium stearate [CaSt] […] 5 mL of water solution of known endotoxin concentration (generated by spiking endotoxin-free water with water solution of known endotoxin concentration) was added to the each test tube, vortexed vigorously (1 minute) using Fisher Scientific Digital Vortex Mixer, and then placed in a warm water bath (37°C) for 1 hour. After 1 hour, the tubes were removed from warm water bath and vortexed vigorously (1 minute). Sterile syringes with needles were used to extract the solution without removing the calcium stearate. This solution was then tested for endotoxin levels. Kinetic Chromogenic Method for Endotoxin Quantitation, using Endosafe MCS Multi Cartridge System by Charles River Laboratories, Charleston S.C.

[2] = Kinetics of removal of LPS with different agitation techniques in presence of stearate salts; conditions: for Endotoxin Detected (EU): 5mL SRW, baseline 1,502; for Percent (%) Removed: vs SRW Baseline
Description: 5mL of SRW was added to each of the tubes. Each solution was tested for endotoxin removal after agitation based on with sonication, vortexing, or test tube rolling. Sonication samples were sonicated at each indicated time interval for 30 seconds at a magnitude of 30. Vortex samples were vortexed at each indicated time interval for 30 seconds at 2500 RPM. Rolling samples were constantly rolling at 10 rpm. The samples were tested on the MCS for endotoxin at 1 minute, 20 minutes, 40 minutes, 60 minutes, and 80 minutes.

[3] = Detection of LPS in water in presence of CaSt and EDTA and Tween 20; conditions: 5mL, 8330 EU spiked; for Percent detected Endotoxin: 60 min
Description: Further testing was performed with addition of EDTA and Polysorbate 20 reagents to verify permanent removal of LPS/endotoxin activity, by adding EDTA and Polysorbate 20 to the extraction solutions to test for potential recovery of endotoxin activity when introduced to these two substances.
The testing was performed in aqueous solutions with added EDTA and Polysorbate 20, with suspended CaSt present in some solutions in varying quantities. […] The tubes were vortexed for 1 minute and placed in a 37C bath for 1 hour. The tubes were removed from the bath and again vortexed for 1 minute. The solutions were diluted and tested for endotoxin using the Kinetic Chromogenic Method for Endotoxin Quantitation, Charles River Laboratories, Charleston S.C. […] These samples were rigorously vortexed and tested using the Kinetic Chromogenic Method for Endotoxin Quantitation, Charles River Laboratories, Charleston S.C. […]

[4] = 0.0027 g CaSt in 5 ml water, 14,400 EU spiked
[5] = 0.0108 g CaSt in 5 ml water, 14,400 EU spiked
[6] = 0.0518 g CaSt in 5 ml water, 14,400 EU spiked
[7] = 0.2502 g CaSt in 5 ml water, 14,400 EU spiked
[8] = CaSt powder 0.254 g (sample 1), 0.2607 g (sample 2) in 5 ml water, 14,400 EU spiked, 0.254 g CaSt powder added
[9] = CaSt powder 0.254 g (sample 1), 0.2607 g (sample 2) in 5 ml water, 14,400 EU spiked, 0.2607 g CaSt powder added
[10] = Weight of Calcium Stearate 0.007 g
[11] = Weight of Calcium Stearate 0.018 g
[12] = Weight of Calcium Stearate 0.028 g

## CCCCCCCCCCCCCCCCCC(=O)O [Calcium Stearate]
[1]; [4]
  Endotoxin Detected (EU): 11,055 EU
  Percent of detected Endotoxin vs. initial concentration: 77% and 76.77%
[1]; [5]
  Endotoxin Detected (EU): 2,925 EU
  Percent of detected Endotoxin vs. initial concentration: 20% and 20.31%
[1]; [6]
  Endotoxin Detected (EU): 9.4 EU
  Percent of detected Endotoxin vs. initial concentration: 0.07%
[1]; [7]
  Endotoxin Detected (EU): 26.7 EU
  Percent of detected Endotoxin vs. initial concentration: 0.19%
[1]; CaSt powder 0.252/0.258/0.272/0.267 g (samples 1-4) in 5 ml water, 5.208 EU spiked, 37°C 1 hour, 0.252 g CaSt powder added
  Percent of detected Endotoxin vs. initial concentration: <2.88%
[1]; CaSt powder 0.252/0.258/0.272/0.267 g (samples 1-4) in 5 ml water, 5.208 EU spiked, 37°C 1 hour, 0.258 g CaSt powder added
  Percent of detected Endotoxin vs. initial concentration: <8.06%
[1]; CaSt powder 0.252/0.258/0.272/0.267 g (samples 1-4) in 5 ml water, 5.208 EU spiked, 37°C 1 hour, 0.267 g CaSt powder added
  Percent of detected Endotoxin vs. initial concentration: <3.46%
[1]; [8]
  Endotoxin Detected (EU): 12.1 EU
  Percent of detected Endotoxin vs. initial concentration: 0.08%
[1]; [9]
  Endotoxin Detected (EU): 10.3 EU
  Percent of detected Endotoxin vs. initial concentration: 0.07%
[2]; CaSt vs. other salt forms
  removal of LPS (in words), comparison of salts of stearic acid: more efficacious in removal of LPS
[2]; Rolling, 1 minute
  Endotoxin Detected (EU): 1,230 EU
  Percent (%) Removed: 18.1%
[2]; Rolling, 20 minutes
  Endotoxin Detected (EU): 1,050 EU
  Percent (%) Removed: 30.1%
[2]; Rolling, 40 minutes
  Endotoxin Detected (EU): 630 EU
  Percent (%) Removed: 58.1%
[2]; Rolling, 60 minutes
  Endotoxin Detected (EU): 637 EU
  Percent (%) Removed: 57.6%
[2]; Rolling, 80 minutes
  Endotoxin Detected (EU): 451 EU
  Percent (%) Removed: 70%
[2]; Sonication, 1 minute
  Endotoxin Detected (EU): 270 EU
  Percent (%) Removed: 82%
[2]; Sonication, 20 minutes
  Endotoxin Detected (EU): 130 EU
  Percent (%) Removed: 91.3%
[2]; Sonication, 40 minutes
  Endotoxin Detected (EU): 87.5 EU
  Percent (%) Removed: 94.2%
[2]; Sonication, 60 minutes
  Endotoxin Detected (EU): 56.9 EU
  Percent (%) Removed: 96.2%
[2]; Sonication, 80 minutes
  Endotoxin Detected (EU): 16.4 EU
  Percent (%) Removed: 98.9%
[2]; Vortexing, 1 minute
  Endotoxin Detected (EU): 451 EU
  Percent (%) Removed: 70%
[2]; Vortexing, 20 minutes
  Endotoxin Detected (EU): 301 EU
  Percent (%) Removed: 80%
[2]; Vortexing, 40 minutes
  Endotoxin Detected (EU): 139 EU
  Percent (%) Removed: 90.7%
[2]; Vortexing, 60 minutes
  Endotoxin Detected (EU): 173 EU
  Percent (%) Removed: 88.5%
[2]; Vortexing, 80 minutes
  Percent (%) Removed: 93.1%
[3]; [10]
  Endotoxin Detected (EU): 3995 EU
  Percent detected Endotoxin: 48.0%
[3]; [11]
  Endotoxin Detected (EU): 1487.5 EU
  Percent detected Endotoxin: 17.9%
[3]; [12]
  Endotoxin Detected (EU): 235 EU
  Percent detected Endotoxin: 2.8%
